Data: patent US8445006B2, “Biomolecular coating for implants” (Georgia Tech Research Corporation, priority 2006, dated 2013)

Columns and labels:
[1] = tested on: bone marrow stromal cells; experiment: Alkaline phosphatase biochemical activity assay; assay type: cell-based, rat
Experimental: Primary bone marrow stromal cells were harvested from the femora of young adult male Wistar rats in accordance with an IACUC-approved protocol. After excision, hindleg femora and tibiae were cleared of soft tissue and rinsed in growth medium (α-minimal essential medium supplemented with 10% fetal bovine serum, 1% penicillin-streptomycin, and 0.3 μg/ml amphotericin B). The ends of the long bones were then removed and the marrow space was flushed with culture medium (3-5 ml), using a syringe with an 18-gauge needle. Marrow isolates were pooled, centrifuged, resuspended in growth medium, and seeded for adhesion-dependent selection on tissue culture polystyrene dishes. Non-adherent hematopoietic cells were removed during subsequent medium exchanges, which occurred every other day. Cells were subcultured every two days according to standard techniques. For in vitro osteogenic assays, cells were seeded at 10,000 cells/cm^2 in growth medium. […]
ALP activity was quantified at 7 days in culture using a modification of the Sodek and Berkman method. […] After sonication and centrifugation, the protein concentration was quantified using a Pierce Micro BCA protein assay kit. […] After a 60 min incubation at 37° C., the fluorescence was read at an excitation of 360 nm and an emission of 465 nm on an HTS 7000 Plus BioAssay Reader (Perkin Elmer). […]

[2] = tested on: rat femur segmental defect; experiment: 8 mm segmental defect in the rat femur, micro-CT bone formation; assay type: in vivo; details: coated PCL scaffolds (20 μg/ml) vs PCL and empty defects; 4 and 12 weeks
Experimental: The ability of GFOGER peptide (SEQ ID NO:1)-coated polymeric scaffolds to heal critical sized defects was examined. […] A 8 mm segmental defect in the rat femur was used to evaluate bone repair. Three experimental groups were evaluated: (i) empty defect controls, (ii) PCL scaffolds, and (iii) GFOGER peptide (SEQ ID NO:1)-coated PCL scaffolds. Polycaprolactone (PCL) is a clinically used polymer widely used in orthopaedic and soft tissue applications. Scaffolds were passively coated with GFOGER peptide (SEQ ID NO:1) (20 μg/ml) as described above. Bone formation was assessed non-invasively via micro-computed tomography (micro-CT) at 4 and 12 weeks. […] No differences in bone formation were observed between PCL and empty defects.

[3] = tested on: bone marrow stromal cells; experiment: Centrifugation cell adhesion assay on poly(OEGMA) brush titanium surfaces; assay type: cell-based, rat; details: poly(OEGMA) brushes, 0.9 pmol/cm^2 ligand; for cell adhesion, no antibody: serum exposure
Experimental: Cell adhesion to functionalized and untreated titanium surfaces was measured using a centrifugation assay that applies controlled detachment forces. […] Control titanium slides were coated with 10% FBS (to model serum protein adsorption) or blocking buffer (5% non-fat dry milk in PBS to produce a non adhesive support). Stromal cells were loaded with the fluorescent dye calcein-AM (2 μg/ml, Molecular Probes), detached using trypsin+EDTA, and resuspended serum-free in PBS with 2 mM dextrose. Cells were seeded onto the substrates (10,000 cells/well) for 1 h at 37° C. […] After filling the wells with PBS/dextrose and sealing with transparent adhesive tape, substrates were inverted and spun at a fixed speed in a centrifuge (Beckman Allegra 6, GH 3.8 rotor) to apply a centrifugal force corresponding to 12 g. After centrifugation, media was exchanged and fluorescence intensity was read to measure remaining adherent cells. For each well, adherent cell fraction was calculated as the ratio of post-spin to pre-spin fluorescence readings.
(§1) In vitro evaluation of these engineered titanium surfaces was performed using primary rat bone marrow stromal cells since this heterogeneous population contains osteoprogenitors, and human bone marrow stromal cells are currently used in clinical applications. Cell adhesion was examined using a centrifugation assay that applies a controlled detachment force. […] As a complementary test of integrin specificity, integrin binding was quantified using a biochemical cross-linking/extraction/reversal technique.

αvβ3 integrin = experiment: Integrin binding by cross-linking/extraction/reversal technique; assay type: cell-based, rat; details: equimolar tethered brushes; vs FNIII7-10 support
Experimental: as §1, with “force. To allow direct comparisons between ligand-tethered surfaces, an equimolar ligand density of 0.9 pmol/cm^2 was used; this value represents the highest ligand density that could be ascribed for both surfaces to be equimolar.” for “force.”

FAK = FAK phosphorylation Western blotting on ligand-tethered SAMs; assay type: cell-based, murine
Experimental: Cells were detached and gently agitated in serum-free suspension for 45 min to reduce background. Cells were then seeded at 200 cells/mm^2 serum-free for 1 h. Cells were lysed in RIPA buffer (1% Triton X-100, 1% sodium deoxycholate, 0.1% SDS, 150 mM NaCl, 150 mM Tris-HCl (pH 7.2), 350 μg/ml PMSF, 10 μg/ml leupeptin, and 10 μg/ml aprotonin) for 20 min on ice. Samples were pipetted up and down 20 times and centrifuged at 8000 g for 10 min to shear DNA and isolate protein contents. Total protein was quantified using micro-BCA (Pierce). Equal amounts of protein were boiled for 10 min in Laemmli buffer and separated by SDS-PAGE on a 7% gel, transferred to nitrocellulose membranes, and blocked with Blotto (5% nonfat dry milk, 0.20% Tween-20) overnight at 4° C. Membranes were gently rocked in antibodies against FAK and specific phosphorylated FAK tyrosine residues (anti-total FAK at 1 μg/ml, anti-FAK pY397 at 0.35 μg/ml, anti-FAK pY576 at 0.5 μg/ml) for 1 h. After washing with TBS-Tween (20 mM Tris HCl pH 7.6, 137 mM NaCl, 0.1% Tween-20), secondary antibody (biotin-conjugated anti-rabbit IgG; 1:20,000) was added for 1 h, followed by alkaline phosphatase-conjugated anti-biotin antibody (1:10,000) in Blotto. Immunoreactivity was assessed by ECF fluorescent substrate. FAK bands were visualized by a Fuji Image Analyzer and phosphorylation levels normalized to total FAK.

α5β1 integrin = experiment: Integrin binding by cross-linking/extraction/reversal technique; assay type: cell-based, rat; details: equimolar tethered brushes; vs RGD-tethered brushes and serum-exposed titanium
Experimental: as §1, with “force. To allow direct comparisons between ligand-tethered surfaces, an equimolar ligand density of 0.9 pmol/cm^2 was used; this value represents the highest ligand density that could be ascribed for both surfaces to be equimolar.” for “force.”

| Substance | ALP activity ([1]; 7 days, adsorbed coating vs untreated titanium) | bone formation (micro-CT) [2] | cell adhesion with anti-αv antibody [3] | cell adhesion, no antibody [3] | bound αvβ3 integrin (αvβ3 integrin) | alkaline phosphatase activity ([1]; tethered brushes vs RGD-functionalized surfaces) | FAK tyrosine-861 phosphorylation (FAK; among both peptide-tethered surfaces) | FAK tyrosine-397 phosphorylation (FAK; maximum peptide densities, vs RGD-tethered surface) | FAK tyrosine-576 phosphorylation (FAK; vs RGD-functionalized support) | cell adhesion with blocking anti-α5 antibody [3] | bound α5β1 integrin (α5β1 integrin) |
| --- | --- | --- | --- | --- | --- | --- | --- | --- | --- | --- | --- |
| GGYGGGPC(GPP)5GFOGER(GPP)5GPC [GFOGER peptide] | elevated levels of activation | enhancement in bone formation | – | – | – | – | – | – | – | – | – |
| GRGDSPC [RGD peptide, linear RGD oligopeptide purchased from BACHEM; primarily supports αvβ3-mediated adhesion, reference compound] | – | – | eliminated adhesion | high levels of cell adhesion | higher levels of bound αvμ3 | – | – | – | – | – | – |
| FNIII7-10: monobiotinylated recombinant fibronectin fragment spanning the 7-10th type III repeats of fibronectin; α5β1 integrin ligand | – | – | had no effect | high levels of cell adhesion | – | higher alkaline phosphatase activity | phosphorylated at similar levels | increased almost threefold | significantly higher | completely eliminated cell adhesion | significantly higher levels of bound α5β1 integrin |
